# Measurements reported in US6063766A, “Transport protein which effects the transport of cationic xenobiotics and/or pharmaceuticals, DNA sequences encoding it and their use” (priority 1994, dated 2000).
# Where two headings read alike, the source gives them in different places.
# Assays:
# [1] = target: T1, OCT1 transport protein (Rattus norvegicus, UniProt Q63089); conditions: xenopus oocytes expressing oct1
# T1 sequence (Q63089 1-556): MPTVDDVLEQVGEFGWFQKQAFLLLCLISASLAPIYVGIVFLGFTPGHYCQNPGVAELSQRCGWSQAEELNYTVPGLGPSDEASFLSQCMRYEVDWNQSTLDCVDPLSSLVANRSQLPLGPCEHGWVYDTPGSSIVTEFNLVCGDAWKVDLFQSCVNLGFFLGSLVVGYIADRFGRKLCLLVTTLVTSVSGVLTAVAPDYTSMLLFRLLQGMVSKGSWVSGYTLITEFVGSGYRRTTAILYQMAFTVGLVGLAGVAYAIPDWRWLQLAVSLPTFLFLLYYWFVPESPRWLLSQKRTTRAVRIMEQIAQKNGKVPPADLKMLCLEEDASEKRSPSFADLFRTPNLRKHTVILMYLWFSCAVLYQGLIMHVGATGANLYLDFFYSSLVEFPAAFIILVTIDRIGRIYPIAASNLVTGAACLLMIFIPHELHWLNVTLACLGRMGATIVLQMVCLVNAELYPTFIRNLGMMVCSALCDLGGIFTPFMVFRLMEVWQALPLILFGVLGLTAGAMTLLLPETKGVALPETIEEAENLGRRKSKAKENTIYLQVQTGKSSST
# [2] = target: MPP uptake in hepatocytes; conditions: cultured hepatocytes; cited from earlier work
# [3] = target: T1, OCT1 transport protein; assay: Inhibition of ^14 C-TEA uptake in Xenopus laevis oocytes injected with OCT1 cRNA
# [4] = test system: LLC-PK1 cells, luminal membrane; conditions: read-out: Ki for transport of TEA across the luminal membrane, LLC-PK1 cells; cited from earlier work
# [5] = test system: LLC-PK1 cells, basolateral membrane; conditions: estimated, read-out: Ki for transport of TEA across the basolateral membrane, LLC-PK1 cells; cited from earlier work
# [6] = target: T1, OCT1 transport protein; assay: cell-based
# [7] = target: basolateral membrane of rat proximal renal tubules; conditions: microperfusion experiments; previous investigations; read-out: Ki for basolateral uptake of TEA into rat proximal renal tubules; cited from earlier work
# [8] = target: luminal uptake of TEA; conditions: previous investigations, cited from earlier work
# [9] = target: T1, OCT1 transport protein; conditions: 8 ng OCT1 cRNA injected
# [10] = test system: neuronal monoamine transport protein in synaptic vesicles; conditions: cited from earlier work
# [11] = Ki for inhibition of OCT1-elicited ^14 C-TEA uptake
compound,measurement,setting,value
C[n+]1ccc(-c2ccccc2)cc1 [1-Methyl-4-phenylpyridinium],Ki,[1],13 ± 2 µM
"CC[n+]1c(C=C2C=C(C)N=C(c3ccccc3)N2C)ccc2ccccc21 [Cyanine 863, 1-ethyl-2([1,4-dimethyl-2-phenyl-6-pyrimidinylidene]methyl)quinoliniumchloride]",Ki,[2],0.1 µM
same,Ki,[3]; [11],0.00013 mM
CCN1C(=Cc2ccc3ccccc3[n+]2CC)C=Cc2ccccc21 [Decynium 22],Ki,[1],0.36 ± 0.08 µM
same,Ki,[2],0.23 µM
same,Ki,[4],0.0056 µM
same,Ki,[5],> 0.1 µM
same,Ki,[6],0.4 µM
CNCCCN1c2ccccc2CCc2ccccc21 [Desipramine],inhibition of OCT1-elicited ^14 C-TEA uptake (in words),[3],inhibited
CC(C)C(c1ccccc1)C(O)CC[N+]1(C)CCCCC1 (centres unmarked) [Mepiperphenidol],Ki,[1],5.2 ± 0.3 µM
C[n+]1cccc(C(N)=O)c1 [N^1 -Methylnicotinamide],Ki,[7],540 µM
same,Ki,[8]; read-out: Ki for luminal uptake of TEA (printed in nM),8.3e+06 nM
same,inhibition by NMN of OCT1-induced ^14 C-TEA uptake (in words),[3],able to inhibit
same,inhibition of OCT1-elicited ^14 C-TEA uptake (in words),[3],inhibited
same,Ki,[3]; [11],1 ± 0.2 mM
same,Ki,"[3]; Ki for inhibition of OCT1-elicited ^14 C-TEA uptake (mM, text)",~1 mM
COc1cc(C(O)CNC(C)C)ccc1O (centres unmarked) [O-Methylisoprenaline],Ki,[1],43 ± 5 µM
same,Ki,[2],78 µM
same,inhibition of OCT1-elicited ^14 C-TEA uptake (in words),[3]; oocytes injected with OCT1 cRNA,inhibited
C=C[C@H]1C[N@@]2CC[C@H]1C[C@H]2[C@H](O)c1ccnc2ccc(OC)cc12 [Quinine],inhibition of expressed ^3 H-MPP uptake (in words),[9],inhibited
COC(=O)[C@H]1[C@H]2C[C@@H]3c4[nH]c5cc(OC)ccc5c4CCN3C[C@H]2C[C@@H](OC(=O)c2cc(OC)c(OC)c(OC)c2)[C@@H]1OC [Reserpine],"inhibiting concentration, neuronal monoamine transport protein in synaptic vesicles",[10],sub-nanomolar
same,effect on OCT1-elicited transport,[3]; 5 μM,no effect
C[N+](C)(C)C [Tetramethylammonium],Ki,[7],1400 µM
same,Ki,[8]; read-out: Ki for luminal uptake of TEA,7e+07 nM
same,inhibition of OCT1-elicited ^14 C-TEA uptake (in words),[3],inhibited
CCCCC[N+](CCCCC)(CCCCC)CCCCC [Tetrapentylammonium],Ki,[1],0.43 ± 0.09 µM
